Laboratory results as given in ChEMBL document CHEMBL5257029, “Contemporary developments in the discovery of selective factor Xa inhibitors: A review” (Eur J Med Chem, 2016).

Target: Coagulation factor X (Homo sapiens, UniProt P00742)
Experiment: Binding affinity to FXa (unknown origin) assessed as inhibition constant

Sequence of Coagulation factor X (P00742 41-179 limits assumed): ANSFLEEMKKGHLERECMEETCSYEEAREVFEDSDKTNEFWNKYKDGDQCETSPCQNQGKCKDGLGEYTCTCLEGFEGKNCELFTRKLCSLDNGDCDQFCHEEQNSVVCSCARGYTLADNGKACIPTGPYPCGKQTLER
Sequence of Coagulation factor X (P00742 235-488 limits assumed): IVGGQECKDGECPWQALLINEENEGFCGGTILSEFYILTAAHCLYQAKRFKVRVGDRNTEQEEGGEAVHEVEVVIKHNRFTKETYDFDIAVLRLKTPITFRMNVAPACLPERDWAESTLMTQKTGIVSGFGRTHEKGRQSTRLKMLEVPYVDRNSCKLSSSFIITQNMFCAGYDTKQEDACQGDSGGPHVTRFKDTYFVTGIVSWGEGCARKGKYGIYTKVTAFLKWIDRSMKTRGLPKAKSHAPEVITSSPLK

Ki | Compound
25 nM | N=C(N)c1ccc(C[C@@H](NC(=O)NC23CC4CC(CC(C4)C2)C3)C(=O)NCCc2ccccc2)cc1
0.91 nM | NCc1cccc(-n2nc(C(F)(F)F)cc2C(=O)Nc2ccc(-c3ccccc3S(N)(=O)=O)cc2F)c1
2 nM | CC(C)N1CCC(NS(=O)(=O)CCNC(=O)c2ccc(Cl)s2)CC1
